# Measurements reported in patent US10266549B2, “ULK1 inhibitors and methods using same” (SALK INSTITUTE FOR BIOLOGICAL STUDIES, priority 2014, dated 2019).
# Biological target: ULK1 (Homo sapiens (Human), UniProt O75385)
# Test: ULK1 inhibition assay (Table 1)
# Type: biochemical
# Details: * = tested as a mixture of regioisomers
# ULK1, sequence (O75385 whole entry, species assumed): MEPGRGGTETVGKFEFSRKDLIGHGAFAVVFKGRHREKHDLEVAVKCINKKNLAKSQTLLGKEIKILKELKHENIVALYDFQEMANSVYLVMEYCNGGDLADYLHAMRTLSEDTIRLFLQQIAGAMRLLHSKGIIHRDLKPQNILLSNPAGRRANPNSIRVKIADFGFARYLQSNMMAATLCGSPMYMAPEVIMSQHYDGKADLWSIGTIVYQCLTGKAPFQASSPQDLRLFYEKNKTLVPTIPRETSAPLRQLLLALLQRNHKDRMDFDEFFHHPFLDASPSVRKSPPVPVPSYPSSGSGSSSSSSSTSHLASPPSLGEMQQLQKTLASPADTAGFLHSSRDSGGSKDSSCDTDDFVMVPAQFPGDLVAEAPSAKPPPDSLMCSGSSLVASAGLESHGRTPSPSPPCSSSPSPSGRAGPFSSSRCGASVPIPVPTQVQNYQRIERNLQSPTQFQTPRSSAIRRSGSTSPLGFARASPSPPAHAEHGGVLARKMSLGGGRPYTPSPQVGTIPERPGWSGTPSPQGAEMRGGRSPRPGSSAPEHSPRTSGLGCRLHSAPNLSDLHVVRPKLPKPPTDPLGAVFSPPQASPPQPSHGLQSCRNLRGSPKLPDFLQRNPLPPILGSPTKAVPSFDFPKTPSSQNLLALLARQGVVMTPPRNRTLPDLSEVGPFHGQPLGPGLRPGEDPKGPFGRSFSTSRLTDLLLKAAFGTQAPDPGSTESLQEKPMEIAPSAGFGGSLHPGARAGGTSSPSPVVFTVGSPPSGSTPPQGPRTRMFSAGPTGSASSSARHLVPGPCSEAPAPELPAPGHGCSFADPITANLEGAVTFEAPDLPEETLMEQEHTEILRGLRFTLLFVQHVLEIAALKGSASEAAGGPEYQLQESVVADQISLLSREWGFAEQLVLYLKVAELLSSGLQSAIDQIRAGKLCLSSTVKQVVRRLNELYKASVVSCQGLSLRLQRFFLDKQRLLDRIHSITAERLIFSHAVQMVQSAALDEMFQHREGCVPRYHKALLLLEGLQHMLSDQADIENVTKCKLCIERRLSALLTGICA
row,SMILES,IC50 [nM]
1,"FC(F)(F)c1cnc(Nc2cnc3[nH]ccc3c2)nc1NC1CC1 [152a, N^4-cyclopropyl-N^2-(1H-pyrrolo[2,3-b]pyridin-5-yl)-5-(trifluoromethyl)pyrimidine-2,4-diamine]",< 200
2,"FC(F)(F)c1cnc(NC2CC2)nc1Nc1cnc2[nH]ccc2c1 [152b, N^2-cyclopropyl-N^4-(1H-pyrrolo[2,3-b]pyridin-5-yl)-5-(trifluoromethyl)pyrimidine-2,4-diamine]",200 to 2000
3,"FC(F)(F)c1cnc(Nc2ccc3c(c2)OCCO3)nc1NC1CC1 [158a, N^4-cyclopropyl-N^2-(2,3-dihydrobenzo[b][1,4]dioxin-6-yl)-5-(trifluoromethyl)pyrimidine-2,4-diamine]",< 200
4,"FC(F)(F)c1cnc(NC2CC2)nc1Nc1ccc2c(c1)OCCO2 [158b, N^2-cyclopropyl-N^4-(2,3-dihydrobenzo[b][1,4]dioxin-6-yl)-5-(trifluoromethyl)pyrimidine-2,4-diamine]",< 200
5,"O=C1CCc2cc(Nc3ncc(C(F)(F)F)c(NC4CCCC4)n3)ccc2N1 [160a, 6-((4-(cyclopentylamino)-5-(trifluoromethyl)pyrimidin-2-yl)amino)-3,4-dihydroquinolin-2(1H)-one]",< 200
6,"O=C1CCc2cc(Nc3nc(NC4CCCC4)ncc3C(F)(F)F)ccc2N1 [160b, 6-((2-(cyclopentylamino)-5-(trifluoromethyl)pyrimidin-4-yl)amino)-3,4-dihydroquinolin-2(1H)-one]",200 to 2000
7,"FC(F)(F)c1cnc(Nc2cnc3[nH]ccc3c2)nc1NC1CCC1 [161a, N^4-cyclobutyl-N^2-(1H-pyrrolo[2,3-b]pyridin-5-yl)-5-(trifluoromethyl)pyrimidine-2,4-diamine]",< 200
8,"FC(F)(F)c1cnc(NC2CCC2)nc1Nc1cnc2[nH]ccc2c1 [161b, N^2-cyclobutyl-N^4-(1H-pyrrolo[2,3-b]pyridin-5-yl)-5-(trifluoromethyl)pyrimidine-2,4-diamine]",< 200
9,"FC(F)(F)c1cnc(NC2Cc3ccccc3C2)nc1Nc1ccc2c(c1)OCO2 [163a, N^4-(benzo[d][1,3]dioxol-5-yl)-N^2-(2,3-dihydro-1H-inden-2-yl)-5-(trifluoromethyl)pyrimidine-2,4-diamine]",> 2000
10,"FC(F)(F)c1cnc(Nc2ccc3c(c2)OCO3)nc1NC1Cc2ccccc2C1 [163b, N^2-(benzo [d] [1,3]dioxol-5-yl)-N^4-(2,3-dihydro-1H-inden-2-yl)-5-(trifluoromethyl)pyrimidine-2,4-diamine]",> 2000
11,"FC(F)(F)c1cnc(N2CCCC2)nc1Nc1ccc2c(c1)OCO2 [164a, N-(benzo[d][1,3]dioxol-5-yl)-2-(pyrrolidin-1-yl)-5-(trifluoromethyl)pyrimidin-4-amine]",> 2000
12,"FC(F)(F)c1cnc(Nc2ccc3c(c2)OCO3)nc1N1CCCC1 [164b, N-(benzo[d][1,3]dioxol-5-yl)-4-(pyrrolidin-1-yl)-5-(trifluoromethyl)pyrimidin-2-amine]",200 to 2000
13,"Nc1ncc(C(F)(F)F)c(Nc2ccc3c(c2)OCO3)n1 [165a, N^4-(benzo[d][1,3]dioxol-5-yl)-5-(trifluoromethyl)pyrimidine-2,4-diamine]",200 to 2000
14,"Nc1nc(Nc2ccc3c(c2)OCO3)ncc1C(F)(F)F [165b, N^2-(benzo[d][1,3]dioxol-5-yl)-5-(trifluoromethyl)pyrimidine-2,4-diamine]",200 to 2000
15,"FC(F)(F)c1cnc(N2CCC2)nc1Nc1ccc2c(c1)OCO2 [166a, 2-(azetidin-1-yl)-N-(benzo[d][1,3]dioxol-5-yl)-5-(trifluoromethyl)pyrimidin-4-amine]",> 2000
16,"FC(F)(F)c1cnc(Nc2ccc3c(c2)OCO3)nc1N1CCC1 [166b, 4-(azetidin-1-yl)-N-(benzo[d][1,3]dioxol-5-yl)-5-(trifluoromethyl)pyrimidin-2-amine]",< 200
17,"FC(F)(F)c1cnc(NCC2CC2)nc1Nc1ccc2c(c1)OCO2 [167a, N^4-(benzo[d][1,3]dioxol-5-yl)-N^2-(cyclopropylmethyl)-5-(trifluoromethyl)pyrimidine-2,4-diamine]",< 200
18,"FC(F)(F)c1cnc(Nc2ccc3c(c2)OCO3)nc1NCC1CC1 [167b, N^2-(benzo[d][1,3]dioxol-5-yl)-N^4-(cyclopropylmethyl)-5-(trifluoromethyl)pyrimidine-2,4-diamine]",< 200
19,"FC(F)(F)c1cnc(NC2CCC2)nc1Nc1ccc2c(c1)OCO2 [168a, N^4-(benzo[d][1,3]dioxol-5-yl)-N^2-cyclobutyl-5-(trifluoromethyl)pyrimidine-2,4-diamine]",< 200
20,"FC(F)(F)c1cnc(Nc2ccc3c(c2)OCO3)nc1NC1CCC1 [168b, N^2-(benzo[d][1,3]dioxol-5-yl)-N^4-cyclobutyl-5-(trifluoromethyl)pyrimidine-2,4-diamine]",200 to 2000
21,"FC(F)(F)c1cnc(NC2CCC2)nc1NC1CCC1 [168c, N^2,N^4-dicyclobutyl-5-(trifluoromethyl) pyrimidine-2,4-diamine]",200 to 2000
22,"COc1cc(Nc2ncc(Br)c(N(C)C(=O)c3ccccc3O)n2)cc(OC)c1OC [171b, N-(5-bromo-2-((3,4,5-trimethoxyphenyl)amino)pyrimidin-4-yl)-2-hydroxy-N-methylbenzamide]",< 200

row,SMILES,IC50 [nM]
1,"O=C1CCc2cc(Nc3ncc(C(F)(F)F)c(Nc4ccc5c(c4)OC(F)(F)O5)n3)ccc2N1 [178a, 6-((4-((2,2-difluorobenzo[d][1,3]dioxol-5-yl)amino)-5-(trifluoromethyl)pyrimidin-2-yl)amino)-3,4-dihydroquinolin-2(1H)-one]",< 200
2,"O=C1CCc2cc(Nc3nc(Nc4ccc5c(c4)OC(F)(F)O5)ncc3C(F)(F)F)ccc2N1 [178b, 6-((2-((2,2-difluorobenzo[d][1,3]dioxol-5-yl)amino)-5-(trifluoromethyl)pyrimidin-4-yl)amino)-3,4-dihydroquinolin-2(1H)-one]",< 200
3,"O=C1CCc2cc(Nc3ncc(C(F)(F)F)c(OC4Cc5ccccc5C4)n3)ccc2N1 [180a, 6-((4-((2,3-dihydro-1H-inden-2-yl)oxy)-5-(trifluoromethyl)pyrimidin-2-yl)amino)-3,4-dihydroquinolin-2(1H)-one]",< 200
4,"O=C1CCc2cc(Nc3nc(OC4Cc5ccccc5C4)ncc3C(F)(F)F)ccc2N1 [180b, 6-((2-((2,3-dihydro-1H-inden-2-yl)oxy)-5-(trifluoromethyl)pyrimidin-4-yl)amino)-3,4-dihydroquinolin-2(1H)-one]",> 2000
5,"FC(F)(F)c1cnc(Nc2cnc3[nH]ccc3c2)nc1Nc1ccccc1 [181a, N4-phenyl-N2-(1H-pyrrolo[2,3-b]pyridin-5-yl)-5-(trifluoromethyl)pyrimidine-2,4-diamine]",< 200
6,"Nc1ncc(C(F)(F)F)c(Nc2cnc3[nH]ccc3c2)n1 [181b, N4-(1H-pyrrolo[2,3-b]pyridin-5-yl)-5-(trifluoromethyl)pyrimidine-2,4-diamine]",200 to 2000
7,"CNc1nc(Nc2cnc3[nH]ccc3c2)ncc1C(F)(F)F [182a, N4-methyl-N2-(1H-pyrrolo[2,3-b]pyridin-5-yl)-5-(trifluoromethyl)pyrimidine-2,4-diamine]",< 200
8,"CNc1ncc(C(F)(F)F)c(Nc2cnc3[nH]ccc3c2)n1 [182b, N2-methyl-N4-(1H-pyrrolo[2,3-b]pyridin-5-yl)-5-(trifluoromethyl)pyrimidine-2,4-diamine]",200 to 2000
9,COc1cc(Nc2nc(-n3nnc4ccccc43)ncc2Br)cc(O)c1OC [Example 331b],200 to 2000
10,"CNC(=O)c1ccccc1Nc1nc(Nc2ccc(N3CCOCC3)cc2OC)ncc1Cl [compound 12, 2-(5-Chloro-2-(2-methoxy-4-morpholinophenylamino)pyrimidin-4-ylamino)-N-methylbenzamide]",< 200
11,"CNC(=O)c1ccccc1Nc1nc(Nc2ccc(N3CCOCC3)cc2OC)ncc1Br [compound 13, 2-(5-Bromo-2-(2-methoxy-4-morpholinophenylamino)pyrimidin-4-ylamino)-N-methylbenzamide]",200 to 2000
12,"CNC(=O)c1ccccc1Nc1nc(Nc2cc(OC)c(OC)c(OC)c2)ncc1Cl [compound 15, 2-(5-Chloro-2-(3,4,5-trimethoxyphenylamino)pyrimidin-4-ylamino)-N-methylbenzamide]",< 200
13,"CNC(=O)c1ccccc1Nc1nc(Nc2cc(OC)ccc2C)ncc1Cl [compound 16, 2-(5-Chloro-2-(5-methoxy-2-methylphenylamino)pyrimidin-4-ylamino)-N-methylbenzamide]",< 200
14,"CNC(=O)c1ccccc1Nc1nc(Nc2cc(OC)ccc2C)ncc1Br [compound 17, 2-(5-Bromo-2-(5-methoxy-2-methylphenylamino)pyrimidin-4-ylamino)-N-methylbenzamide]",< 200
15,"CNC(=O)c1ccccc1Nc1nc(Nc2ccc3[nH]ccc3c2)ncc1Cl [compound 18, 2-(2-(1H-indol-5-ylamino)-5-chloropyrimidin-4-ylamino)-N-methylbenzamide]",200 to 2000
16,"CNC(=O)c1ccccc1Nc1nc(Nc2ccc3c(c2)CCC(=O)N3)ncc1Cl [compound 19, 2-(5-Chloro-2-(2-oxo-1,2,3,4-tetrahydroquinolin-6-ylamino)pyrimidin-4-ylamino)-N-methylbenzamide]",< 200
17,"CNC(=O)c1ccccc1Nc1nc(Nc2ccc3c(c2)CCC(=O)N3)ncc1Br [compound 20, 2-((5-Bromo-2-((2-oxo-1,2,3,4-tetrahydroquinolin-6-yl)amino)pyrimidin-4-yl)amino)-N-methylbenzamide]",< 200
18,"CNC(=O)c1ccccc1Nc1nc(Nc2ccc3c(c2)CC(=O)N3)ncc1Cl [compound 21, 2-(5-Chloro-2-(2-oxoindolin-5-ylamino)pyrimidin-4-ylamino)-N-methylbenzamide]",< 200
19,"COc1cc(Nc2ncc(Br)c(Nc3ccccn3)n2)cc(OC)c1OC [compound 22, Bromo-N^4-(pyridin-2-yl)-N^2-(3,4,5-trimethoxyphenyl) pyrimidine-2,4-diamine]",< 200
20,"CNC(=O)c1ccccc1Nc1nc(Nc2ccc3[nH]ccc3c2)ncc1Br [compound 23, 2-(2-(1H-indol-5-ylamino)-5-bromopyrimidin-4-ylamino)-N-methylbenzamide]",< 200
21,"COc1ccc(Nc2nc(Nc3cc(OC)c(OC)c(OC)c3)ncc2Cl)cn1 [compound 24, 5-Chloro-N^4-(6-methoxypyridin-3-yl)-N^2-(3,4,5-trimethoxyphenyl)pyrimidine-2,4-diamine]",< 200
